Residues, ends and D or L forms follow the SMILES beside them. No end group written: not given here.
Tests used:
PTS Enzyme I = target: T1, PTS Enzyme I (Escherichia coli, UniProt P08839); assay: Inhibition of sugar uptake assay (enzyme I dependent GlcNAc phosphorylation), low molecular weight compounds; assay type: biochemical, E. coli; details: compounds at 25-200 μM, DMSO control taken as 100%; read-out: Activity against PTS Enzyme I IC50
T1 construct: made in house
Description: To find inhibitors of Enzyme I of the PTS by high throughput screening, an in vitro assay based on spectrophotometric read out at 340 nm has been set up. The assay comprises of three major components: purified enzyme I in catalytic amounts, PEP as the phosphoryl donor substrate, and purified HPr as the phosphoryl acceptor substrate. The assay couples the formation of pyruvate from PEP with its reduction to lactate, catalyzed by lactate dehydrogenase. The disappearance of NADH, cofactor required by lactate dehydrogenase, is monitored colorimetrically at 340 nm. The assay is done in a U-shaped microtiter plate format, and quantitation is done using microplate absorbance reader.
Reaction mixtures, each 100 μl, are used in the assay. Each reaction mixture contains 0.8 mM PEP, 0.2 mM NADH, 3 μg lactate dehydrogenase (Boehringer Mannheim), 50 mM KPi pH=7.5, 2.5 mM dithiothreitol, 2.5 mM NaF, 5 mM MgCl2, and between 25 and 200 μM of one of the organic compounds to be tested. […]
Once the inhibitors of Enzyme I of the PTS are identified by high throughput screening, inhibition of enzyme I dependent sugar phosphorylation activity is measured with the inhibition of sugar uptake assay detailed below.
This assay measures the inhibition of enzyme I dependent sugar phosphorylation activity. […] Activity is expressed as nmoles of sugar-P formed after 30 min. […]

enzyme I [1] = target: T2, enzyme I (Escherichia coli, UniProt P08839); assay: biochemical; assay type: biochemical, E. coli; details: for IC50: in vitro PTS activity, purified HPr, enzyme I and IIGlcNAc, 30 min at 37° C., Table I, read-out: inhibition IC50
T2 construct: made in house
Description: (d) Inhibition of in vitro PTS activity. The inhibitory activity of soluble compounds can be measured quantitatively in the sugar phospbotransferase assay in the presence of the purified PTS proteins and with [^14C]GlcNAc ([^14C]N-acetyl-glucosamine) or [^14C]Glc ([[…] as terminal phosphate acceptor (Erni et al., 1982 J. Biol. Chem. 257:13726-13730).
Inhibition of phosphotransferase activity by soluble peptides. This assay measures the inhibition of enzyme I dependent sugar phosphorylation activity. […] The purified N-acetylglucosamine transporter (II^GlcNAc) of E. coli (Mukhija and Erni, 1996) was used as the sugar specific component. The reaction mixture contained per 100 μl, 100 μg phosphatidyl glycerol from egg yolk (Sigma), 50 mM KPi, pH 7.5, 2.5 mM dithiothreitol, 2.5 mM NaF, 5 MM MgCl2, 1 mM phosphoenolpyruvate (potassium salt, Sigma), 0.5 mM [U-^14C]GlcNAc (New England Nuclear; 56.3 mCi/mmol, diluted to 1000 cpm/nmol), and 3 μM each of purified HPr and enzyme I (Mao et al., 1995 J. Biol. Chem. 270:5258-5265). The reaction was started by addition of 0.1 μg of II^GlcNAc. After incubation for 30 min at 37° C., the reaction was stopped by adding 1 ml ice-cold water. GlcNAc-6-Phosphate was separated from free Glc-NAc by anion-exchange chromatography on AG-1-X2 (50-100 mesh, Biorad). Activity is expressed as nmoles of sugar-P formed after 30 min. The HPr concentration was adjustedsuch that it was rate limiting in the overall phosphotransferase reaction. The inhibitory peptides were added to concentrations of 25 μm to 10 mM. Phosphorylation of GlcNAc in the absences of peptide was taken as 100%.

enzyme I [2] = target: T2, enzyme I; assay: Pyruvate formation coupled to lactate dehydrogenase (uncoupling / phosphatase activity); assay type: biochemical, E. coli; details: for uncoupling P1/peptide (x IC50/h): μM NADH consumed per μM peptide per one hour multiplied by the IC50 (μM); for uncoupling P1/peptide/h: Table 2
Description: The assay can be performed in microtiter plates and quantitated with a microplate photoreader. Another assay to monitor phosphatase activity of soluble compounds is based on the detection of pyruvate which is continuously produced from phosphoenolpyruvate whenever enzyme I is dephosphorylated. The enzyme I-specific phosphatase activity of soluble compounds can be detected from the pyruvate burst. The rate of pyruvate formation is monitored with lactate dehydrogenase and NADH. The assay can be performed in microtiter plates and quantitated with a microplate photoreader.

E. coli K-12 UT580 = assay: Growth inhibition assay, filter discs on LB soft agar; assay type: cell-based; details: area of clear zone around filter disc, over night at 37° C.
Description: FIG. 4. Growth inhibition of E. coli K12 UT580.
Growth inhibition assay. […] To each filter was added 10 μl of one of the different peptide stock solutions (20 μM to 80 μM). […] Compare FIG. 4 and Table I on the following two pages.

[3] = Growth inhibition MIC (Table 2); assay type: cell-based

Compound	uncoupling P1/peptide (x IC50/h) (enzyme I [2])	uncoupling P1/peptide/h (enzyme I [2])	also measured
O=C1NN=C(c2ccccc2)CC1Cc1ccc(O)cc1 (centres unmarked) [4-(4-Hydroxy-benzyl)-6-phenyl-4,5-dihydro-2H-pyridazin-3-one]	–	–	IC50 (PTS Enzyme I): 20 µM
Cc1cc(-c2onc(C)c2C(=O)Sc2ccc(Cl)cc2)no1 [5,3′-Dimethyl-[3,5′]-biisoxazolyl-4′-carbothioic acid-S-(4-chloro-phenyl) ester]	–	–	IC50 (PTS Enzyme I): 50 µM
CSCC[C@H](N)C(=O)N[C@@H](CCCNC(=N)N)C(=O)N[C@@H](CC(C)C)C(=O)N[C@@H](CC(C)C)C(=O)N[C@@H](CCCCN)C(=O)N[C@H](C(=O)N[C@@H](CC(C)C)C(=O)N[C@@H](CS)C(=O)N[C@@H](Cc1ccccc1)C(=O)NCC(=O)N[C@@H](CC(C)C)C(=O)N[C@@H](CS)C(=O)NCC(=O)O)[C@@H](C)O [compound 18] (H-MRLLKTLCFGLCG-OH; N-terminus and C-terminus assumed)	–	–	IC50 (enzyme I [1]): 3500 µM
CSCC[C@H](NC(C)=O)C(=O)N[C@@H](CCCNC(=N)N)C(=O)N[C@@H](CC(C)C)C(=O)N[C@@H](CC(C)C)C(=O)N[C@@H](CCCCN)C(=O)N[C@H](C(=O)N[C@@H](CC(C)C)C(=O)N[C@@H](CS)C(=O)N[C@@H](Cc1ccccc1)C(=O)N[C@H](C(=O)NCC(=O)N[C@@H](CC(C)C)C(=O)N[C@@H](CS)C(=O)NCC(=O)O)C(C)C)[C@@H](C)O [compound 19] (Ac-MRLLKTLCFVGLCG-OH)	–	–	IC50 (enzyme I [1]): > 10000 µM
Ac-DGARLHYLF [compound 10]	15.2 x IC50/h	–	–
DGARLHYLF [compound 9]	132.3 x IC50/h	–	–
GLRGKTRVHYLVLG [peptide 1]	3.2 x IC50/h	–	growth inhibition (area/μM) (E. coli K-12 UT580): 3.65 area/μM
HPr protein: small (9 kD) soluble phosphorylcarrier protein HPr, natural phosphoryl acceptor of enzyme I	–	2.70 P1/peptide/h	–
KGWHKRKK [compound 25]	–	0.23 P1/peptide/h	–
KISRHGKRGK [compound 5]	1.9 x IC50/h	–	–
KISRHGRPTG [compound 6]	479.3 x IC50/h	–	–
KKFALRK [compound 21]	–	–	inhibition IC50 (enzyme I [1]; peptides from support-based combinatorial libraries, Table 2): none
KKFDLRK [compound 22, KKFDLRK]	–	0.05 P1/peptide/h	–
KKFHIRKR [compound 28]	–	0.31 P1/peptide/h	–
KKFHLRK [compound 20, KKFHLRK]	–	0.49 P1/peptide/h	–
KKWHKRKK [compound 27]	–	0.215 P1/peptide/h	–
KKWHLRKR [compound 24]	–	0.3 P1/peptide/h	–
KKWHRRKK [compound 26]	–	0.29 P1/peptide/h	–
KMSRHRKPGA [compound 3]	22.2 x IC50/h	–	–
MSRHRN [compound 16, MSRHRN]	143.8 x IC50/h	–	–
RHITLF [compound 15, RHITLF]	–	–	growth inhibition (area/μM) (E. coli K-12 UT580): 0.27 area/μM
RHWSIF [compound 11, RHWSIF]	–	–	growth inhibition (area/μM) (E. coli K-12 UT580): 1.30 area/μM
RHYLLF [compound 13, RHYLLF]	–	–	growth inhibition (area/μM) (E. coli K-12 UT580): 0.83 area/μM
RIHFIPRRGR [compound 7]	39.6 x IC50/h	–	growth inhibition (area/μM) (E. coli K-12 UT580): 0.77 area/μM
RLHYLF [compound 8, RLHYLF]	64.2 x IC50/h	–	growth inhibition (area/μM) (E. coli K-12 UT580): 0.90 area/μM
SGRKSTRVHHWLLVL [compound 2]	6.6 x IC50/h	–	growth inhibition (area/μM) (E. coli K-12 UT580): 3.05 area/μM
XXKKWHLRKRXX [compound 23]	–	0.43 P1/peptide/h	growth inhibition MIC [3]: 44.7 µM

Reference: patent US6777176B1, “Target system” (priority 1997, dated 2004)
